Patent publication US20250339462A1, “CANCER TREATMENT USING ULTRA-HIGH CONCENTRATION GASEOUS NITRIC OXIDE AND A CHECKPOINT INHIBITOR” (Beyond Air, Inc., priority 2022, published 2025)

System: CT26 cells
Assay: In vitro UNO exposure of CT26 cells, Annexin V/PI cell death analysis
Type: cell-based, mouse
Conditions: 25,000-100,000 ppm for 10 s, 30 s or 1 min; 24 hours following exposure; dosage and time dependent
Protocol: Preparation of cells—Mouse colon carcinoma CT26.WT cells (ATCC number: CRL-2638) were grown to a 70-80% confluency and harvested using trypsin. Following, the cells were centrifuged at 1,200 revolutions per minute (rpm)—241 G for 8 minutes, then the pellet was re-suspended in 1 ml of cell media (RPMI—1640 supplemented with 10% FBS and 1% Pen-Strep). The cells were counted using an automated cell counter and a total of 2×10^6 cells were seeded into each […] containing 9 ml cell media. The plates were then placed for 24 hours in an incubator at 37° C., 5% CO2.
UNO treatment—Following 24 hours of incubation, cell media was removed, and the plate was placed in an acrylic box stationed within an operating chemical fume hood. Prior to the initiation of treatment, the box was exposed to UV for 1 hour to reduce the chances of contamination. The box was closed and sealed with parafilm. A PVC delivery line was placed within a designated hole on the top of the box and lowered until approximately 5 cm within the box. The flowmeter was set to 1 LPM to expose the cells for the durations and concentrations described in Table 3 (control cells were untreated).
Following treatment, 9 ml of cell media were added to each well and the plate was placed for 24 hours in an incubator at 37° C., 5% CO2.
Flow cytometry—Cell media was removed to a 50 ml centrifuge tube. […]

[N]=O [UNO, nitric oxide]
Effect on viability of CT26 cancer cells: reduces viability and induces apoptosis and necrosis
